Patent US7732200B2, “Materials and methods for nerve grafting, selection of nerve grafts, and in vitro nerve tissue culture” (University of Florida Research Foundation, Inc., priority 2001, dated 2010)

Tests used:
chick DRG neurons = assay: Cryoculture assay using human nerve segments; format: cell-based; conditions: DRG neurons 24 h; P<0.001 vs vehicle
Procedure: Cryoculture bioassay. Cryoculture is a neurite outgrowth assay in which neurons are cultured directly on fresh/frozen nerve sections and was performed as described previously (Ferguson T A et al. [2000] Mol Cell Neurosci, 16:157-167). Briefly, chondroitinase- and vehicle-treated nerve segments were sectioned at 20 μm, mounted on sterile, aminopropyltriethoxysilane (APTS)-coated coverslips and stored at −20° C. until used. Where indicated, sections were treated with chondroitinase ABC (0.1 unit/ml) or vehicle (50 mM Tris-HCl, pH 8.0), containing 50 mM NaCl) for 2 h at 37° C. Purified dorsal root ganglionic (DRG) neurons from day 8 chick embryos were seeded directly on the nerve sections in a defined N2 medium (Bottenstein J E et al. [1980] Exp Cell Res 125:183-190) containing 10 ng/ml nerve growth factor. Cryoculture assays were terminated after 24 h of incubation by fixation with 100% methanol. Neuritic growth by DRG neurons was accessed by GAP-43 immunofluorescent labeling. Epifluorescent photomicrographs were acquired as described for tissue sections. Neurite lengths were measured directly using IMAGE-PRO PLUS software (MEDIA CYBERNETICS, Silver Springs, Md.). At least 250 neurons with neurites greater than one cell body (˜15 μm) were scored for each condition in each experiment. […]

sciatic nerve [1] = assay: Axonal regeneration after bilateral sciatic nerve crush injury (axonotmesis); format: in vivo, rat; conditions: 1 U in 2 μl; 2 days after injury; 6 nerves per condition
Procedure: Surgical procedures for nerve transection and nerve crush experiments. All surgical procedures were performed according to Institutional Animal Care and Use Committee (IACUC) approved protocols. Young adult SPRAGUE DAWLEY rats (HARLAN Indianapolis, Ind.) were deeply anesthetized with xylazine (15 mg/kg, i.m.) followed by ketamine-HCl (110 mg/kg, i.p.). Six animals received bilateral nerve crush injuries. Sciatic nerves were exposed and then crushed with firm pressure for thirty seconds with a DUMONT #5 forceps at a site 4 mm distal to the tendon of the internal obdurator. The crush site was marked with an epineurial suture. In a separate set of experiments, eight rats received bilateral sciatic nerve transection injuries using serrated scissors. The proximal and distal stumps were […] by epineurial neurorrhaphy using 9-0 ETHILON sutures. Fibrin glue (fibrinogen and thrombin) was then applied to stabilize the union. […]
Immunocytochemistry. Axonal regeneration was assessed by GAP-43 immunofluorescence and digital image analysis. […]
The hypothesis that chondroitinase treatment improves axonal growth through the site of nerve crush injury was tested. […] Regenerating axons were labeled by GAP-43 immunofluorescence and scored by digital image analysis. […]

sciatic nerve [2] = assay: Axonal regeneration after sciatic nerve transection (neurotmesis) and neurorrhaphic repair; format: in vivo, rat

chondroitinase ABC
growth-promoting properties of human nerves (neurite length) (chick DRG neurons): increased | axonal regeneration after nerve crush injury (GAP-43 immunoreactivity) vs vehicle (sciatic nerve [1]): not significantly effected | score of axons immediately distal to the coaptation vs control (sciatic nerve [2]; 1 U in 2 μl, 4 days after injury, 7 nerves per condition): two-fold greater | animals in which the number of axons entering the distal nerve was greater than in the control nerve (sciatic nerve [2]; 4 days after injury): 7/7 | propensity of axons to regrow within basal laminae of the distal nerve (sciatic nerve [2]; GAP-43 and laminin double-immunolabeling): unaltered | animals with increases greater than 3.5-fold (sciatic nerve [2]; axons immediately distal to coaptation, 4 days): 3/7
